This is an account of results in patent publication US10934310B2, “Inhibitors of Bruton's tyrosine kinase and method of their use” (JANSSEN PHARMACEUTICA NV, priority 2015, dated 2021).

This assay deals with unphosphorylated-BTK kinase domain (UP-BTK), GST-tagged human BTK (389-659aa) (Homo sapiens (Human), UniProt Q06187). Put plainly: BTK Kinase Lanthascreen Binding Assay. As to conditions: for BTK_I_binding pIC50: Lanthascreen binding, 60 minutes incubation, pIC50 = negative log of the IC50 in molar; for IC50: read-out: BTK_I_binding pIC50 (converted). The protocol:
BTK Kinase Lanthascreen Binding Assay:
A BTK kinase lanthascreen binding assay monitors compound binding to unphosphorylated-BTK kinase domain (UP-BTK), by competing with a fluorescent labeled tracer. […] Data were analyzed using Xlfit™ version 5.3 from ID Business Solutions (Guildford), Microsoft Excel add-in. pIC50 refers to the negative log of the IC50 in molar.
(In TR-FRET formats the signal depends on donor and acceptor labels being close together.)

Sequence of unphosphorylated-BTK kinase domain (UP-BTK), GST-tagged human BTK (389-659aa) (Q06187 389-659): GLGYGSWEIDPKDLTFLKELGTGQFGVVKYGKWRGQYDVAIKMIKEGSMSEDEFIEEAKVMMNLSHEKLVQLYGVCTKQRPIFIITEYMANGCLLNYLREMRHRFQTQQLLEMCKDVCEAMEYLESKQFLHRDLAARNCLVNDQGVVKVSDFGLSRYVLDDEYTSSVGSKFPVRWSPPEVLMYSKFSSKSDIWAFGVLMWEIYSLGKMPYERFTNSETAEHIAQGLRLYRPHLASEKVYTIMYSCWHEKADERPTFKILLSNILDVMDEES

`Cc1nc(Oc2ccccc2)ccc1N1C(=O)Nc2c(C(=O)N[C@@H]3CCC[C@H]3N)sc3nccc1c23` (single isomer, unassigned) [Example 339, N-((1R,2R)-2-Aminocyclopentyl)-5-(*S)-(2-methyl-6-phenoxypyridin-3-yl)-4-oxo-4,5-dihydro-3H-1-thia-3,5,8-triazaacenaphthylene-2-carboxamide]: the “BTK_I_binding pIC50” value worked out at 6.28. As to `CC(=O)N[C@H]1CCCC[C@H]1NC(=O)c1sc2nccc3c2c1NC(=O)N3c1ccc(Oc2ccccc2)nc1C` (single isomer, unassigned) [Example 340, N-((1R,2S)-2-Acetamidocyclohexyl)-5-(*S)-(2-methyl-6-phenoxypyridin-3-yl)-4-oxo-4,5-dihydro-3H-1-thia-3,5,8-triazaacenaphthylene-2-carboxamide], the “BTK_I_binding pIC50” value came to 6.26. In the case of `C=CC(=O)N[C@H]1CCCC[C@H]1NC(=O)c1sc2nccc3c2c1NC(=O)N3c1cnc(OC2CCCC2)cc1C` (single isomer, unassigned) [Example 341, N-((1R,2S)-2-Acrylamidocyclohexyl)-5-(*R)-(6-(cyclopentyloxy)-4-methylpyridin-3-yl)-4-oxo-4,5-dihydro-3H-1-thia-3,5,8-triazaacenaphthylene-2-carboxamide], the “BTK_I_binding pIC50” value amounted to 6.23.

With `CCC(=O)N[C@H]1CCCC[C@H]1NC(=O)c1sc2nccc3c2c1NC(=O)N3c1ccc(Oc2ccccc2)nc1C` (single isomer, unassigned) [Example 343, 5-(*S)-(2-Methyl-6-phenoxypyridin-3-yl)-4-oxo-N-((1R,2S)-2-propionamidocyclohexyl)-4,5-dihydro-3H-1-thia-3,5,8-triazaacenaphthylene-2-carboxamide], the “BTK_I_binding pIC50” value came to 6.11. On to `CC(=O)N[C@H]1CCC[C@H]1NC(=O)c1sc2nccc3c2c1NC(=O)N3c1ccc(Oc2ccccc2)nc1C` (single isomer, unassigned) [Example 345, N-((1R,2S)-2-Acetamidocyclopentyl)-5-(*S)-(2-methyl-6-phenoxypyridin-3-yl)-4-oxo-4,5-dihydro-3H-1-thia-3,5,8-triazaacenaphthylene-2-carboxamide], for which the “BTK_I_binding pIC50” value was found to be 6.09.

Regarding `CCC(=O)N[C@H]1CCC[C@H]1NC(=O)c1sc2nccc3c2c1NC(=O)N3c1ccc(Oc2ccccc2)nc1C` (single isomer, unassigned) [Example 346, 5-(*S)-(2-Methyl-6-phenoxypyridin-3-yl)-4-oxo-N-((1R,2S)-2-propionamidocyclopentyl)-4,5-dihydro-3H-1-thia-3,5,8-triazaacenaphthylene-2-carboxamide], the “BTK_I_binding pIC50” value is 6.07. `C=CC(=O)N[C@H]1CCC[C@H]1NC(=O)c1sc2nccc3c2c1NC(=O)N3c1ccc(OC2CCOCC2)cc1C` (single isomer, unassigned) [Example 347, N-((1R,2S)-2-Acrylamidocyclopentyl)-5-(*R)-(2-methyl-4-((tetrahydro-2H-pyran-4-yl)oxy)phenyl)-4-oxo-4,5-dihydro-3H-1-thia-3,5,8-triazaacenaphthylene-2-carboxamide]: the “BTK_I_binding pIC50” value is on record as 6.06. As to `Cc1nc(Oc2ccccc2)ccc1N1C(=O)Nc2c(C(=O)N[C@@H]3CCCC[C@H]3N)sc3nccc1c23` (single isomer, unassigned) [Example 350, N-((1R,2R)-2-Aminocyclohexyl)-5-(*S)-(2-methyl-6-phenoxypyridin-3-yl)-4-oxo-4,5-dihydro-3H-1-thia-3,5,8-triazaacenaphthylene-2-carboxamide], the IC50 was > 1 µM. Still for that read-out and setting: to `C=CC(=O)N[C@H]1CCCC[C@H]1NC(=O)c1sc2nccc3c2c1NC(=O)N3c1cnc(OCC(C)C)cc1C` (single isomer, unassigned) [Example 352, N-((1R,2S)-2-Acrylamidocyclohexyl)-5-(*R)-(6-isobutoxy-4-methylpyridin-3-yl)-4-oxo-4,5-dihydro-3H-1-thia-3,5,8-triazaacenaphthylene-2-carboxamide] belongs > 1 µM.

Turning to `CCC(=O)N[C@@H]1CCC[C@H]1NC(=O)c1sc2nccc3c2c1NC(=O)N3c1ccc(Oc2ccccc2)nc1C` (single isomer, unassigned) [Example 353, 5-(*S)-(2-Methyl-6-phenoxypyridin-3-yl)-4-oxo-N-((1R,2R)-2-propionamidocyclopentyl)-4,5-dihydro-3H-1-thia-3,5,8-triazaacenaphthylene-2-carboxamide], the IC50 was > 1 µM. Regarding `Cc1cc(Oc2ccccc2)ncc1N1C(=O)Nc2c(C(=O)N[C@@H]3CC[C@H](N)C3)sc3nccc1c23` (single isomer, unassigned) [Example 355, N-((1R,3S)-3-Aminocyclopentyl)-5-(*S)-(4-methyl-6-phenoxypyridin-3-yl)-4-oxo-4,5-dihydro-3H-1-thia-3,5,8-triazaacenaphthylene-2-carboxamide], the “BTK_I_binding pIC50” value was 6.61. Turning to `Cc1cc(Oc2ccccc2)ncc1N1C(=O)Nc2c(C(=O)N[C@@H]3CCC[C@H](N)C3)sc3nccc1c23` (single isomer, unassigned) [Example 356, N-((1R,3S)-3-Aminocyclohexyl)-5-(*S)-(4-methyl-6-phenoxypyridin-3-yl)-4-oxo-4,5-dihydro-3H-1-thia-3,5,8-triazaacenaphthylene-2-carboxamide], the IC50 is > 1 µM. As to `CC(=O)N[C@@H]1CCC[C@H]1NC(=O)c1sc2nccc3c2c1NC(=O)N3c1ccc(Oc2ccccc2)nc1C` (single isomer, unassigned) [Example 358, N-((1R,2R)-2-Acetamidocyclopentyl)-5-(*S)-(2-methyl-6-phenoxypyridin-3-yl)-4-oxo-4,5-dihydro-3H-1-thia-3,5,8-triazaacenaphthylene-2-carboxamide], the “BTK_I_binding pIC50” value is recorded as 6.44. As for `C=CC(=O)N[C@H]1CC[C@@H](NC(=O)c2sc3nccc4c3c2NC(=O)N4c2cnc(Oc3ccccc3)cc2C)C1` (single isomer, unassigned) [Example 359, N-((1R,3S)-3-Acrylamidocyclopentyl)-5-(*S)-(4-methyl-6-phenoxypyridin-3-yl)-4-oxo-4,5-dihydro-3H-1-thia-3,5,8-triazaacenaphthylene-2-carboxamide], the “BTK_I_binding pIC50” value is 8.05. Take `CC(=O)N[C@H]1CCC[C@@H](NC(=O)c2sc3nccc4c3c2NC(=O)N4c2cnc(Oc3ccccc3)cc2C)C1` (single isomer, unassigned) [Example 360, N-((1R,3S)-3-Acetamidocyclohexyl)-5-(*S)-(4-methyl-6-phenoxypyridin-3-yl)-4-oxo-4,5-dihydro-3H-1-thia-3,5,8-triazaacenaphthylene-2-carboxamide]: the “BTK_I_binding pIC50” value is given as 6.26.

Turning to `CCC(=O)N[C@H]1CC[C@@H](NC(=O)c2sc3nccc4c3c2NC(=O)N4c2cnc(Oc3ccccc3)cc2C)C1` (single isomer, unassigned) [Example 361, 5-(*S)-(4Methyl-6-phenoxypyridin-3-yl)-4-oxo-N-((1R,3S)-3-propionamidocyclopentyl)-4,5-dihydro-3H-1-thia-3,5,8-triazaacenaphthylene-2-carboxamide], the “BTK_I_binding pIC50” value is 7.94. With `CC(=O)N[C@@H]1CCCC[C@H]1NC(=O)c1sc2nccc3c2c1NC(=O)N3c1ccc(Oc2ccccc2)nc1C` (single isomer, unassigned) [Example 362, N-((1R,2R)-2-Acetamidocyclohexyl)-5-(*S)-(2-methyl-6-phenoxypyridin-3-yl)-4-oxo-4,5-dihydro-3H-1-thia-3,5,8-triazaacenaphthylene-2-carboxamide], the IC50 was > 1 µM. Regarding `C=CC(=O)N[C@H]1CCC[C@@H](NC(=O)c2sc3nccc4c3c2NC(=O)N4c2cnc(Oc3ccccc3)cc2C)C1` (single isomer, unassigned) [Example 363, N-((1R,3S)-3-Acrylamidocyclohexyl)-5-(*S)-(4-methyl-6-phenoxypyridin-3-yl)-4-oxo-4,5-dihydro-3H-1-thia-3,5,8-triazaacenaphthylene-2-carboxamide], the “BTK_I_binding pIC50” value is recorded as 6.31. Regarding `CCC(=O)N[C@H]1CCCC[C@H]1NC(=O)c1sc2nccc3c2c1NC(=O)N3c1ccc(Oc2ccccc2)nc1C` (single isomer, unassigned) [Example 364, 5-(*S)-(2-Methyl-6-phenoxypyridin-3-yl)-4-oxo-N-((1R,2R)-2-propionamidocyclohexyl)-4,5-dihydro-3H-1-thia-3,5,8-triazaacenaphthylene-2-carboxamide], the IC50 was > 1 µM.

With `C=CC(=O)N[C@H]1CC[C@@H](NC(=O)c2sc3nccc4c3c2NC(=O)N4c2cnc(OCC(C)C)cc2C)C1` (single isomer, unassigned) [Example 365], the “BTK_I_binding pIC50” value is given as 7.93.

Take `C=CC(=O)N[C@H]1CC[C@@H](NC(=O)c2sc3nccc4c3c2NC(=O)N4c2cnc(OC3CCCC3)cc2C)C1` (single isomer, unassigned) [Example 366, N-((1R,3S)-3-Acrylamidocyclopentyl)-5-(*S)-(6-(cyclopentyloxy)-4-methylpyridin-3-yl)-4-oxo-4,5-dihydro-3H-1-thia-3,5,8-triazaacenaphthylene-2-carboxamide]: the “BTK_I_binding pIC50” value turned out to be 8.07. Same read-out and setting: to `C=CC(=O)N[C@H]1CCC[C@H]1NC(=O)c1sc2nccc3c2c1NC(=O)N3c1cnc(OC2CCCC2)cc1C` (single isomer, unassigned) [Example 371, N-((1R,2S)-2-Acrylamidocyclopentyl)-5-(*S)-(6-(cyclopentyloxy)-4-methylpyridin-3-yl)-4-oxo-4,5-dihydro-3H-1-thia-3,5,8-triazaacenaphthylene-2-carboxamide] belongs 8.23. For `C=CC(=O)N[C@H]1CCC[C@H]1NC(=O)c1sc2nccc3c2c1NC(=O)N3c1cnc(OCC(C)C)cc1C` (single isomer, unassigned) [Example 373, N-((1R,2S)-2-Acrylamidocyclopentyl)-5-(*S)-(6-isobutoxy-4-methylpyridin-3-yl)-4-oxo-4,5-dihydro-3H-1-thia-3,5,8-triazaacenaphthylene-2-carboxamide], the “BTK_I_binding pIC50” value was found to be 8.25.
